Data from US10266537B2, “3-acetylenyl-pyrazole-pyrimidine derivative, and preparation method therefor and uses thereof” (Si Chuan University, priority 2015, dated 2019).
Where two headings read alike, the source gives them in different places.

What was measured:
MDA-MB-231 = assay: Cell proliferation inhibition assay (MTT); type: cell-based, human; conditions: Homo sapiens, read-out: Proliferative inhibitory activity MDA-MB-231 (IC50 class)
MDA-MB-435 = assay: Cell proliferation inhibition assay (MTT); type: cell-based, human; conditions: Homo sapiens, read-out: Proliferative inhibitory activity MDA-MB-435 (IC50 class)
c-Src(1-530) = c-Src(1-530) (Homo sapiens (Human), UniProt P12931); assay: Kinase inhibition assay (KinaseProfiler, 33P-ATP); conditions: c-Src(1-530); ATP at Km
Chain of c-Src(1-530) (P12931 whole entry, looked up): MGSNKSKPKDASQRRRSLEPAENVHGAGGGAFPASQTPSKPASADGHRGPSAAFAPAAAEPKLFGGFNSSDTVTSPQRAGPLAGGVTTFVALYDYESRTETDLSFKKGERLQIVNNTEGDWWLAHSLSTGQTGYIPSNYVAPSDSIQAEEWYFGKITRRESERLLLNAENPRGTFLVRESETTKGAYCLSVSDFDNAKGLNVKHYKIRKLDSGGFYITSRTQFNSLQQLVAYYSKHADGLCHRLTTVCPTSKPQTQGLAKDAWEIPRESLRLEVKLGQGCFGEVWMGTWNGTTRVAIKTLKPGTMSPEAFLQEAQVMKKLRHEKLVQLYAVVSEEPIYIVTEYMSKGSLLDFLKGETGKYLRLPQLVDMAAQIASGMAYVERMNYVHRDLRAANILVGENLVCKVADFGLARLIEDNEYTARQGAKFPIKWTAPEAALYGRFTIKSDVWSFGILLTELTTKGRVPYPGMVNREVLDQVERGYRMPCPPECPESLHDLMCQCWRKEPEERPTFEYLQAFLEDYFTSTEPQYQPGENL

| IC50 (MDA-MB-231; MDA-MB-231, MTT, 72 hours) | IC50 (MDA-MB-435; MDA-MB-435, MTT, 72 hours) | IC50 (c-Src(1-530)) | Structure (SMILES) | IC50 (MDA-MB-231; MDA-MB-231, 72 h) | IC50 (MDA-MB-435; MDA-MB-435, 72 h) |
| --- | --- | --- | --- | --- | --- |
| > 1000 nM | > 1000 nM | 139 nM | Cc1cn(-c2cc(NC(=O)c3ccc(C)c(C#Cc4nn(C(C)C)c5ncnc(N)c45)c3)cc(C(F)(F)F)c2)cn1 [Compound 12] |  |  |
| 100 to 500 nM | > 1000 nM | 59 nM | CCn1nc(C#Cc2cc(C(=O)Nc3ccc(CN4CCN(C)CC4)c(C(F)(F)F)c3)ccc2OC)c2c(N)ncnc21 [Compound 24] |  |  |
| 100 to 500 nM | < 100 nM | 15 nM | CC(C)n1nc(C#Cc2cc(C(=O)Nc3ccc(CN4CCN(C)CC4)c(C(F)(F)F)c3)ccc2Cl)c2c(N)ncnc21 [Compound 9] |  |  |
| 100 to 500 nM | > 1000 nM | 4 nM | Cc1ccc(C(=O)Nc2ccc(CN3CCN(C)CC3)cc2)cc1C#Cc1nn(C(C)C)c2ncnc(N)c12 [Compound 17] |  |  |
| < 100 nM | < 100 nM | 19 nM | Cc1ccc(C(=O)Nc2ccc(CN3CCN(C)CC3)c(C(F)(F)F)c2)cc1C#Cc1nn(C2CCCC2)c2ncnc(N)c12 [Compound 7] |  |  |
| < 100 nM | 100 to 500 nM | 11 nM | Cc1ccc(C(=O)Nc2cc(CN3CCN(C)CC3)cc(C(F)(F)F)c2)cc1C#Cc1nn(C(C)C)c2ncnc(N)c12 [Compound 13] |  |  |
| < 100 nM | < 100 nM | 7 nM | Cc1ccc(C(=O)Nc2ccc(CN3CCN(C)CC3)c(C(F)(F)F)c2)cc1C#Cc1nn(C)c2ncnc(N)c12 [Compound 8] |  |  |
| 100 to 500 nM | > 1000 nM | 3 nM | Cc1ccc(C(=O)Nc2cccc(C(F)(F)F)c2)cc1C#Cc1nn(C(C)C)c2ncnc(N)c12 [Compound 14] |  |  |
| < 100 nM | < 100 nM | 11 nM | CCn1nc(C#Cc2cc(C(=O)Nc3ccc(CN4CCN(C)CC4)c(C(F)(F)F)c3)ccc2Cl)c2c(N)ncnc21 [Compound 26] |  |  |
| < 100 nM | < 100 nM | 9 nM | Cc1ccc(C(=O)Nc2ccc(CN3CCN(C)CC3)c(C(F)(F)F)c2)cc1C#Cc1nn(C2CCC2)c2ncnc(N)c12 [Compound 6] |  |  |
| 100 to 500 nM | > 1000 nM | 83 nM | CCc1ccc(C(=O)Nc2ccc(CN3CCN(C)CC3)c(C(F)(F)F)c2)cc1C#Cc1nn(CC)c2ncnc(N)c12 [Compound 10] |  |  |
| < 100 nM | < 100 nM | 7 nM | Cc1ccc(NC(=O)c2ccc(CN3CCN(C)CC3)c(C(F)(F)F)c2)cc1C#Cc1nn(C(C)C)c2ncnc(N)c12 [Compound 16] |  |  |
| < 100 nM | < 100 nM | 8 nM | COCn1nc(C#Cc2cc(C(=O)Nc3ccc(CN4CCN(C)CC4)c(C(F)(F)F)c3)ccc2C)c2c(N)ncnc21 [Compound 19] |  |  |
| > 1000 nM | 500 to 1000 nM |  | CN1CCC(n2nc(C#Cc3cccc(NC(=O)Nc4cccc(C(F)(F)F)c4)c3)c3c(N)ncnc32)CC1 [Compound 39] |  |  |
| 100 to 500 nM | 100 to 500 nM |  | Cc1ccc(NC(=O)c2nc(C(C)(C)C)cs2)cc1C#Cc1nn([C@@H]2CCN(C)C2)c2ncnc(N)c12 [Compound 97] |  |  |
| 100 to 500 nM | 100 to 500 nM |  | CCn1nc(C#Cc2cc(C(=O)Nc3cccc(C(F)(F)F)c3)ccc2C)c2c(N)ncnc21 [Compound 119] |  |  |
| < 100 nM | < 100 nM |  | Cc1ccc(NC(=O)c2cc(Cl)cc(C(F)(F)F)c2)cc1C#Cc1nn(C2CCN(C)CC2)c2ncnc(N)c12 [Compound 66] |  |  |
|  |  |  | Cc1ccc(C(=O)Nc2ccc(CN3CCN(C)CC3)c(C(F)(F)F)c2)cc1C#Cc1nn([C@@H]2CCOC2)c2ncnc(N)c12 [Compound 20] | < 100 nM | < 100 nM |
| 100 to 500 nM | 100 to 500 nM |  | Cc1ccc(NC(=O)c2cccc(C(F)(F)F)c2F)cc1C#Cc1nn(C2CCN(C)CC2)c2ncnc(N)c12 [Compound 48] |  |  |
| 500 to 1000 nM | < 100 nM | 10 nM | CC(C)n1nc(C#Cc2cccc(C(=O)Nc3ccc(CN4CCN(C)CC4)c(C(F)(F)F)c3)c2)c2c(N)ncnc21 [Compound 11] |  |  |
| 500 to 1000 nM | 100 to 500 nM |  | CN1CCC(n2nc(C#Cc3cc(NC(=O)c4cccc(C(F)(F)F)c4)ccc3Cl)c3c(N)ncnc32)CC1 [Compound 34] |  |  |
| 100 to 500 nM | 100 to 500 nM |  | Cc1ccc(C(=O)Nc2cc(C(C)(C)C)nn2C)cc1C#Cc1nn(C2CCN(C)CC2)c2ncnc(N)c12 [Compound 61] |  |  |
| > 1000 nM | > 1000 nM |  | CCn1nc(C#Cc2cc(C(=O)Nc3ccc(CN4CCN(C)CC4)c(C(F)(F)F)c3)ccc2C(C)C)c2c(N)ncnc21 [Compound 27] |  |  |
| 100 to 500 nM | 100 to 500 nM |  | Cc1ccc(NC(=O)c2cc(C(F)(F)F)ccc2F)cc1C#Cc1nn(C2CCN(C)CC2)c2ncnc(N)c12 [Compound 50] |  |  |
| < 100 nM | < 100 nM |  | Cc1ccc(NC(=O)c2cccc(C(F)(F)F)c2)cc1C#Cc1nn(C[C@H](C)CO)c2ncnc(N)c12 [Compound 111] |  |  |
| 500 to 1000 nM | < 100 nM |  | Cc1ccc(NC(=O)Nc2cccc(C(F)(F)F)c2)cc1C#Cc1nn(C2CCN(C)CC2)c2ncnc(N)c12 [Compound 35] |  |  |

| IC50 (MDA-MB-231; MDA-MB-231, MTT, 72 hours) | IC50 (MDA-MB-435; MDA-MB-435, MTT, 72 hours) | IC50 (c-Src(1-530)) | Structure (SMILES) | IC50 (MDA-MB-231; MDA-MB-231, 72 h) | IC50 (MDA-MB-435; MDA-MB-435, 72 h) |
| --- | --- | --- | --- | --- | --- |
| < 100 nM | < 100 nM |  | Cc1ccc(NC(=O)c2cccc(C(C)(C)C)c2)cc1C#Cc1nn([C@H]2CC[C@H](O)CC2)c2ncnc(N)c12 [Compound 118] |  |  |
| < 100 nM | 100 to 500 nM |  | Cc1ccc(NC(=O)c2ccc(Cl)c(C(F)(F)F)c2)cc1C#Cc1nn(C[C@@H](C)CO)c2ncnc(N)c12 [Compound 82] |  |  |
| < 100 nM | > 1000 nM |  | Cc1ccc(NC(=O)c2ccc(Cl)c(C(F)(F)F)c2)cc1C#Cc1nn(CC2CCN(C)C2)c2ncnc(N)c12 (stereo not drawn) [Compound 69] |  |  |
| < 100 nM | < 100 nM | 5 nM | CCn1nc(C#Cc2cccc(C(=O)Nc3ccc(CN4CCN(C)CC4)c(C(F)(F)F)c3)c2)c2c(N)ncnc21 [Compound 29] |  |  |
| 100 to 500 nM | 100 to 500 nM |  | COc1cccc(C(=O)Nc2ccc(C)c(C#Cc3nn(C4CCN(C)CC4)c4ncnc(N)c34)c2)c1 [Compound 44] |  |  |
| 500 to 1000 nM | 100 to 500 nM |  | CN1CCC(n2nc(C#Cc3cccc(NC(=O)c4cccc(C(F)(F)F)c4)c3)c3c(N)ncnc32)CC1 [Compound 33] |  |  |
| < 100 nM | 100 to 500 nM |  | Cc1ccc(C(=O)Nc2cccc(C(F)(F)F)c2)cc1C#Cc1nn(CC2CCN(C)C2)c2ncnc(N)c12 (stereo not drawn) [Compound 108] |  |  |
| < 100 nM | 100 to 500 nM |  | Cc1ccc(C(=O)Nc2cccc(C(F)(F)F)c2)cc1C#Cc1nn(C[C@@H](C)CO)c2ncnc(N)c12 [Compound 105] |  |  |
| < 100 nM | < 100 nM |  | Cc1ccc(C(=O)Nc2cccc(C(F)(F)F)c2)cc1C#Cc1nn(CC2CCN(C)CC2)c2ncnc(N)c12 [Compound 109] |  |  |
| 100 to 500 nM | 100 to 500 nM |  | Cc1ccc(NC(=O)c2ccc(CN3CCN(C)CC3)cc2)cc1C#Cc1nn(C(C)C)c2ncnc(N)c12 [Compound 1] |  |  |
| < 100 nM | > 1000 nM |  | Cc1ccc(NC(=O)c2ccc(Cl)c(C(F)(F)F)c2)cc1C#Cc1nn([C@@H]2CCN(C(=O)[C@@H](C)O)C2)c2ncnc(N)c12 [Compound 73] |  |  |
| 100 to 500 nM | 100 to 500 nM |  | Cc1ccc(NC(=O)c2nc(C(C)(C)C)cs2)cc1C#Cc1nn(CC2CCN(C)C2)c2ncnc(N)c12 (stereo not drawn) [Compound 94] |  |  |
| > 1000 nM | > 1000 nM | 3190 nM | CCn1nc(C#Cc2cc(C(=O)Nc3ccc(CN4CCN(C)CC4)c(C(F)(F)F)c3)ccc2O)c2c(N)ncnc21 [Compound 25] |  |  |
| 500 to 1000 nM | > 1000 nM |  | Cc1ccc(NC(=O)c2ccc(F)c(Cl)c2)cc1C#Cc1nn(C2CCN(C)CC2)c2ncnc(N)c12 [Compound 46] |  |  |
| < 100 nM | < 100 nM |  | Cc1ccc(NC(=O)c2ccc(C)c(C(F)(F)F)c2)cc1C#Cc1nn(CC2CCN(C)C2)c2ncnc(N)c12 (stereo not drawn) [Compound 98] |  |  |
| < 100 nM | < 100 nM |  | Cc1ccc(NC(=O)c2ccc(Cl)c(C(F)(F)F)c2)cc1C#Cc1nn(C2CCN(C)CC2)c2ncnc(N)c12 [Compound 67] |  |  |
| < 100 nM | 100 to 500 nM |  | Cc1ccc(C(=O)Nc2cccc(C(F)(F)F)c2)cc1C#Cc1nn(C2CCN(C)CC2)c2ncnc(N)c12 [Compound 32] |  |  |
| < 100 nM | 500 to 1000 nM |  | Cc1ccc(NC(=O)c2ccc(Cl)c(C(F)(F)F)c2)cc1C#Cc1nn(C2CCN(C(=O)[C@H](C)O)CC2)c2ncnc(N)c12 [Compound 70] |  |  |
| < 100 nM | < 100 nM |  | Cc1ccc(NC(=O)c2cccc(OC(F)(F)F)c2)cc1C#Cc1nn(C2CCN(C)CC2)c2ncnc(N)c12 [Compound 52] |  |  |
| < 100 nM | < 100 nM |  | Cc1ccc(C(=O)Nc2cc(C(C)(C)C)on2)cc1C#Cc1nn(C2CCN(C)CC2)c2ncnc(N)c12 [Compound 62] |  |  |
| > 1000 nM | 100 to 500 nM |  | CCn1nc(C#Cc2cc(C(=O)Nc3ccc(CN4CCN(C)CC4)c(C(F)(F)F)c3)ccc2F)c2c(N)ncnc21 [Compound 23] |  |  |
| < 100 nM | < 100 nM |  | Cc1ccc(NC(=O)c2ccc(CN3CCN(C)CC3)c(C(F)(F)F)c2)cc1C#Cc1nn(C)c2ncnc(N)c12 [Compound 28] |  |  |
| < 100 nM | 100 to 500 nM |  | Cc1ccc(NC(=O)c2ccc(Cl)c(C(F)(F)F)c2)cc1C#Cc1nn([C@@H]2CCN(S(C)(=O)=O)C2)c2ncnc(N)c12 [Compound 84] |  |  |
| 100 to 500 nM | < 100 nM |  | Cc1ccc(NC(=O)c2cc(C(C)(C)C)on2)cc1C#Cc1nn(C2CCN(C)CC2)c2ncnc(N)c12 [Compound 64] |  |  |
| < 100 nM | < 100 nM |  | Cc1ccc(C(=O)Nc2cccc(C(F)(F)F)c2)cc1C#Cc1nn([C@H]2CC[C@H](O)CC2)c2ncnc(N)c12 [Compound 103] |  |  |
| 100 to 500 nM | < 100 nM |  | Cc1ccc(NC(=O)c2nc(C(C)(C)C)cs2)cc1C#Cc1nn(C[C@@H](C)CO)c2ncnc(N)c12 [Compound 95] |  |  |
